The IC50 is the concentration needed to halve the response being measured. For orientation: DC50 means the midpoint of the concentration-degradation curve. What is called Dmax is the greatest extent of degradation seen.

What all share (assay type): cell-based
In test [1] the target is p-EGFR Del19/C797S (H1975-clone #23 cells) (Homo sapiens, UniProt P00533). In words: Cell p-EGFR inhibition assay, HTRF, H1975-clone#23 (DEL19/C797S) cells. The settings on record: 16 h treatment; for Imax (%): maximum percentage of pEGFR inhibition; for IC50: pEGFR inhibition. Put shortly: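 Phospho-EGFR read by overnight HTRF on lysates, normalized to DMSO-treated high control; IC50, Hill slope and Imax fitted. Compounds were applied for 16 h (10 uM top, 5-fold steps, 8 doses) to an H1975 single clone carrying only exogenous Del19/C797S EGFR after sgRNA knockout of endogenous copies.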
(In TR-FRET formats the signal depends on donor and acceptor labels being close together.)

Test [2] concerns the target T1, EGFR L858R (BaF3-L858R cells) (Homo sapiens, UniProt P00533, L858R).
T1 construct: host or cells: BaF3
Description: Cell degradation of EGFR, HTRF assay, BaF3-L858R cells. The settings on record: 16 h treatment; for DC50: EGFR degradation; for Dmax: maximum percentage of degradation. Put shortly:
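BaF3-L858R cells treated 16 h at 37° C, 5% CO2 with compound (top 10 uM final, 5-fold, 8 doses, 0.1% DMSO). DC50 from four-parameter fit; Dmax is maximum percent degradation.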

Test [3] addresses T2, EGFR-L858R/C797S (H1975-clone #8 cells) (Homo sapiens, UniProt P00533, C797S/L858R).
T2 construct: expressed in transfected cells; host or cells: H1975 (endogenous EGFR knocked out, clone #8)
In words: Cell degradation of EGFR, HTRF assay, H1975-clone#8 (L858R/C797S) cells. The settings on record: 16 h treatment; for DC50: EGFR degradation; for Dmax: maximum percentage of degradation.

Test [4] concerns the target T3, p-EGFR L858R (BaF3-L858R cells) (Homo sapiens, UniProt P00533, L858R).
T3 construct: host or cells: BaF3
Description: Cell p-EGFR inhibition assay, HTRF, BaF3-L858R cells. The settings on record: 16 h treatment; for Imax (%): maximum percentage of pEGFR inhibition; for IC50: pEGFR inhibition. Put shortly: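 BaF3-L858R cells treated 16 h at 37 °C, 5% CO2 with compound from 10 uM top, 5-fold dilutions, 8 doses, in 0.1% DMSO medium. Lysates read overnight by HTRF p-EGFR antibodies; IC50 fitted to four-parameter curve against DMSO high control.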

For `Cc1cc2cc(n1)-c1cnn(C)c1OC[C@H]1CC[C@H](C1)CN1/C(=N/C2=O)Nc2ccc(N3CCN(CC4CN(c5ccc6c(c5)CN(C5CCC(=O)NC5=O)C6=O)C4)CC3)cc21` (some centres unmarked) [Example 35, 3-(5-(3-((4-((7^1R,7^3S,E)-1^1,2^6-dimethyl-3-oxo-5^2,5^3-dihydro-1^1H,5^1H-9-oxa-4-aza-5(2,1)-benzo[d]imidazola-2(2,4)-pyridina-1(4,5)-pyrazola-7(1,3)-cyclopentanacyclononaphane-5^6-yl)piperazin-1-yl)methyl)azetidin-1-yl)-1-oxoisoindolin-2-yl)piperidine-2,6-dione], in test [1], the “Imax (%)” value was found to be 101.1% and the IC50 is 0.5 nM. In test [2], half-maximal degradation (DC50) was put at 0.49 nM and the greatest degradation seen (Dmax) is 91.8%. In test [3], the DC50 stood at 0.6 nM and the Dmax turned out to be 58%. In addition, in test [4], the “Imax (%)” value worked out at 91.6% and the IC50 was found to be 1.3 nM.

For the compound `Cc1cc2cc(n1)-c1cnn(C)c1OC[C@H]1CCC(C1)CN1/C(=N/C2=O)Nc2ccc(N3CCN([C@H]4CCN(c5cc(F)c([C@H]6CCC(=O)NC6=O)c(F)c5)C[C@H]4F)CC3)cc21` (single isomer, unassigned) [Example 84], the “Imax (%)” value is reported as 100.5% in test [1] and 109.3% in test [4]. Besides, the values for the concentration for half-maximal inhibition (IC50) in test [1] and in test [4] were 0.5 nM and 6 nM, respectively. For the same compound, the half-maximal degradation concentration (DC50) in test [2] is 4.01 nM; in test [3], 2.1 nM. The Dmax was 79.7% in test [2] and 64.7% in test [3].

With `Cc1cc2cc(n1)-c1c(C)nn(C)c1OC[C@H]1CCC(C1)CN1/C(=N/C2=O)Nc2ccc(N3CCN(CC4CCN(c5cc(F)c([C@H]6CCC(=O)NC6=O)c(F)c5)CC4)[C@H](C)C3)cc21` [Example 134, (R)-3-(2,6-difluoro-4-(4-(((R)-2-methyl-4-((7^1R,7^3S,E)-1^1,1^3,2^6-trimethyl-3-oxo-5^2,5^3-dihydro-1^1H,5^1H-9-oxa-4-aza-5(2,1)-benzo[d]imidazola-2(2,4)-pyridina-1(4,5)-pyrazola-7(1,3)-cyclopentanacyclononaphane-5^6-yl)piperazin-1-yl)methyl)piperidin-1-yl)phenyl)piperidine-2,6-dione], in test [1], the “Imax (%)” value stood at 92.81% and the half-maximal inhibitory concentration (IC50) amounted to 1.76 nM. In test [2], this compound came in with a 50% degradation concentration (DC50) of 1.89 nM and a Dmax of 85.9%. For the same compound, in test [3], it took 4.97 nM to reach half-maximal degradation (DC50) and the Dmax was determined as 79.9%. Moreover, in test [4], the “Imax (%)” value was determined as 98.27% and the 50% inhibitory concentration (IC50) worked out at 2.49 nM.

Regarding `Cc1cc2cc(n1)-c1cnn(C)c1OC[C@H]1CCC(C1)CN1/C(=N/C2=O)Nc2cc(F)c(N3CCN(C4CCN(c5cnc(C6CCC(=O)NC6=O)cc5C)CC4)CC3)cc21` (some centres unmarked) [Example 100, 3-(5-(4-(4-((7^1R,7^3S,E)-5^5-fluoro-1^1,2^6-dimethyl-3-oxo-5^2,5^3-dihydro-1^1H,5^1H-9-oxa-4-aza-5(2,1)-benzo[d]imidazola-2(2,4)-pyridina-1(4,5)-pyrazola-7(1,3)-cyclopentanacyclononaphane-5^6-yl)piperazin-1-yl)piperidin-1-yl)-4-methylpyridin-2-yl)piperidine-2,6-dione], the “Imax (%)” value in test [1] turned out to be 101%; in test [4], 107.3%. Besides, the concentration for half-maximal inhibition (IC50) came to 0.5 nM in test [1] and 6.7 nM in test [4]. Also, the 50% degradation concentration (DC50) was found to be 3.34 nM in test [2] and 3.07 nM in test [3]. In addition, the figures for the greatest degradation seen (Dmax) in test [2] and in test [3] were 72.3% and 87.3%, respectively.

As for `Cc1cc2cc(n1)-c1cnn(C)c1OC[C@H]1CCC(C1)CN1/C(=N/C2=O)Nc2ccc(N3CCN(C4CCN(c5cc(F)c([C@H]6CCC(=O)NC6=O)c(F)c5)CC4)C[C@@H]3CO)cc21` [Example 94, (R)-3-(4-(4-((R)-4-((7^1R,7^3S,E)-1^1,2^6-dimethyl-3-oxo-5^2,5^3-dihydro-1^1H,5^1H-9-oxa-4-aza-5(2,1)-benzo[d]imidazola-2(2,4)-pyridina-1(4,5)-pyrazola-7(1,3)-cyclopentanacyclononaphane-5^6-yl)-3-(hydroxymethyl)piperazin-1-yl)piperidin-1-yl)-2,6-difluorophenyl)piperidine-2,6-dione], the “Imax (%)” value is 101.2% in test [1] and 99.6% in test [4]. The IC50 was determined as 0.8 nM in test [1] and 6.1 nM in test [4]. The values for the DC50 in test [2] and in test [3] were 3.37 nM and 0.83 nM, respectively. The greatest degradation seen (Dmax) in test [2] was 71.6%; in test [3] it was 73.9%.

With `Cc1cc2cc(n1)-c1cnn(C)c1OC[C@H]1CCC(C1)CN1/C(=N/C2=O)Nc2ccc(N3CCN([C@@H]4CCN(c5ccc(OC6CCC(=O)NC6=O)cc5F)C[C@@H]4F)CC3)cc21` (stereo partly drawn) [Example 115, 3-(4-((3S,4R)-4-(4-((7^1R,7^3S,E)-1^1,2^6-dimethyl-3-oxo-5^2,5^3-dihydro-1^1H,5^1H-9-oxa-4-aza-5(2,1)-benzo[d]imidazola-2(2,4)-pyridina-1(4,5)-pyrazola-7(1,3)-cyclopentanacyclononaphane-5^6-yl)piperazin-1-yl)-3-fluoropiperidin-1-yl)-3-fluorophenoxy)piperidine-2,6-dione], in test [1], the “Imax (%)” value is 99.8% and the IC50 amounted to 1.3 nM. For the same compound, in test [2], the DC50 was 1.6 nM and the maximal degradation (Dmax) came out at 81.9%. Also, in test [3], the half-maximal degradation concentration (DC50) is 2.84 nM and the Dmax stood at 81.1%. Moreover, in test [4], the “Imax (%)” value is 97.7% and the IC50 is 3.9 nM.

For the compound `Cc1cc2cc(n1)-c1cnn(C)c1OC[C@H]1CCC(C1)CN1/C(=N/C2=O)Nc2ccc(N3CC4(C3)CN(C3CCN(c5cc(F)c([C@H]6CCC(=O)NC6=O)c(F)c5)CC3)C4)cc21` [Example 117, (R)-3-(4-(4-(6-((7^1R,7^3S,E)-1^1,2^6-dimethyl-3-oxo-5^2,5^3-dihydro-1^1H,5^1H-9-oxa-4-aza-5(2,1)-benzo[d]imidazola-2(2,4)-pyridina-1(4,5)-pyrazola-7(1,3)-cyclopentanacyclononaphane-5^6-yl)-2,6-diazaspiro[3.3]heptan-2-yl)piperidin-1-yl)-2,6-difluorophenyl)piperidine-2,6-dione], the “Imax (%)” value is reported as 100% in test [1] and 97.1% in test [4]. The IC50 in test [1] was found to be 0.6 nM; in test [4], 14.9 nM. Also, the half-maximal degradation concentration (DC50) amounted to 1.11 nM in test [2] and 0.92 nM in test [3]. Moreover, the maximal degradation (Dmax) in test [2] came to 78%; in test [3], 80.6%.

As for `Cc1cc2cc(n1)-c1c(C(F)F)nn(C)c1OC[C@H]1CCC(C1)CN1/C(=N/C2=O)Nc2ccc(N3CCN(C4CCN(c5c(F)cc(NC6CCC(=O)NC6=O)cc5F)CC4)CC3)cc21` (some centres unmarked) [Example 99, 3-((4-(4-(4-((7^1R,7^3S,E)-1^3-(difluoromethyl)-1^1,2^6-dimethyl-3-oxo-5^2,5^3-dihydro-1^1H,5^1H-9-oxa-4-aza-5(2,1)-benzo[d]imidazola-2(2,4)-pyridina-1(4,5)-pyrazola-7(1,3)-cyclopentanacyclononaphane-5^6-yl)piperazin-1-yl)piperidin-1-yl)-3,5-difluorophenyl)amino)piperidine-2,6-dione], in test [1], the “Imax (%)” value is on record as 99.2% and 2.2 nM corresponded to half-maximal inhibition (IC50). In addition, in test [2], it took 1.06 nM to reach half-maximal degradation (DC50) and the Dmax came to 82.3%. In addition, in test [3], the DC50 was 6 nM and the maximal degradation (Dmax) worked out at 85.6%. Moreover, in test [4], the “Imax (%)” value turned out to be 100.3% and it took 8 nM to reach half-maximal inhibition (IC50).

`COC[C@H]1CN(c2ccc3c(c2)N2CC4CC[C@H](COc5c(cnn5C)-c5cc(cc(C)n5)C(=O)/N=C/2N3)C4)CCN1C1CCN(c2cc(F)c(C3CCC(=O)NC3=O)nc2C)CC1` (stereo partly drawn) [Example 71, 3-(5-(4-((R)-4-((7^1R,7^3S,E)-1^1,2^6-dimethyl-3-oxo-5^2,5^3-dihydro-1^1H,5^1H-9-oxa-4-aza-5(2,1)-benzo[d]imidazola-2(2,4)-pyridina-1(4,5)-pyrazola-7(1,3)-cyclopentanacyclononaphane-5^6-yl)-2-(methoxymethyl)piperazin-1-yl)piperidin-1-yl)-3-fluoro-6-methylpyridin-2-yl)piperidine-2,6-dione]: the “Imax (%)” value in test [1] is 99.8%; in test [4], 99.7%. For the same compound, the IC50 in test [1] was found to be 1.1 nM; in test [4], 6.4 nM. For the same compound, the 50% degradation concentration (DC50) was 3.63 nM in test [2] and 3.3 nM in test [3]. For the same compound, the maximal degradation (Dmax) in test [2] amounted to 84.6%; in test [3], 80.2%.

As to `Cc1cc2cc(n1)-c1c(C)nn(C)c1OC[C@H]1CC[C@H](C1)CN1/C(=N/C2=O)Nc2ccc(N3CCC(N4CCC(Nc5cc(F)c([C@H]6CCC(=O)NC6=O)c(F)c5)CC4)CC3)cc21` (single isomer, unassigned) [Example 213], in test [1], the “Imax (%)” value is 98.77% and half-maximal inhibition (IC50) was put at 1.69 nM. Besides, in test [2], the half-maximal degradation concentration (DC50) was 2.18 nM and the Dmax was 88.3%. In test [3], this compound displayed a DC50 of 0.63 nM and a maximal degradation (Dmax) of 82.5%. Besides, in test [4], the “Imax (%)” value is 88.33% and 0.871 nM corresponded to half-maximal inhibition (IC50).

The record behind these values is patent US20240425523A1, “Compounds for the Degradation of EGFR Kinase” (Beigene Switzerland GMBH, priority 2023, published 2024).
